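48-hour exposure; five concentrations; linearly interpolated endpoints. GI50 = concentration required for 50% inhibition of growth. TGI: total growth inhibition.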
Experiments:
Experiment in all cases: growth of human tumour cells (NCI), 48 h
LOX IMVI melanoma = test system: LOX IMVI melanoma
SK-OV-3 ovarian = test system: SK-OV-3 ovarian
HOP-92 NSCLC = test system: HOP-92 NSCLC
IGROV1 ovarian = test system: IGROV1 ovarian
ACHN renal = test system: ACHN renal
HOP-62 NSCLC = test system: HOP-62 NSCLC
MDA-MB-231 breast = test system: MDA-MB-231 breast
CCRF-CEM leukemia = test system: CCRF-CEM leukemia

| Structure (SMILES) | TGI (LOX IMVI melanoma) | TGI (SK-OV-3 ovarian) | TGI (HOP-92 NSCLC) | TGI (IGROV1 ovarian) | TGI (ACHN renal) | TGI (HOP-62 NSCLC) | TGI (MDA-MB-231 breast) | GI50 (LOX IMVI melanoma) | GI50 (SK-OV-3 ovarian) | GI50 (HOP-92 NSCLC) | GI50 (IGROV1 ovarian) | GI50 (ACHN renal) | GI50 (HOP-62 NSCLC) | GI50 (MDA-MB-231 breast) | GI50 (CCRF-CEM leukemia) | TGI (CCRF-CEM leukemia) |
| --- | --- | --- | --- | --- | --- | --- | --- | --- | --- | --- | --- | --- | --- | --- | --- | --- |
| NC(C(=O)O)C(N)C(=O)O (stereo unspecified) | > 100 µM | > 100 µM | > 100 µM | > 100 µM | > 100 µM | > 100 µM | > 100 µM | – | – | – | – | – | – | – | – | – |
| COC(=O)/C(=C/N1CCN(C(=O)c2ccco2)C1=S)C(C)=O | 3.99 µM | 78.2 µM | 75.4 µM | 36 µM | 17.8 µM | 42.8 µM | 26.5 µM | 1.59 µM | 31.3 µM | 20.8 µM | 10.4 µM | 4.05 µM | 20.6 µM | 9.01 µM | – | – |
| NC1=C(c2nc(-c3cc4ccccc4oc3=O)cs2)C(c2ccco2)c2c(c3ccccc3oc2=O)O1 (stereo unspecified) | > 150 µg/mL | > 150 µg/mL | > 150 µg/mL | > 150 µg/mL | > 150 µg/mL | 81.1 µg/mL | > 150 µg/mL | > 150 µg/mL | 51.4 µg/mL | 53.3 µg/mL | > 150 µg/mL | 36.3 µg/mL | 22.4 µg/mL | 75.7 µg/mL | 53.8 µg/mL | 147 µg/mL |
| CC(=O)N1c2ccccc2C23CCN4CC5=CCOC(O)C(C5CC42)C13 (stereo unspecified) | > 100 µM | > 100 µM | > 100 µM | > 100 µM | > 100 µM | – | > 100 µM | – | – | – | – | – | – | – | – | > 100 µM |
| O=C(NCCNCCO)c1ccc2oc3cc4ccccc4c(=O)n3c2c1 | 14 µM | 20.4 µM | 29.6 µM | 17.7 µM | – | 25.5 µM | 19.9 µM | 6.72 µM | 8.66 µM | 7.96 µM | 5.77 µM | – | 9.6 µM | 8.12 µM | – | – |
| COc1ccc2cc(C(=O)/C=C/c3ccc(OC)c(OC)c3)ccc2c1 | > 100 µM | > 100 µM | 80.3 µM | 78.2 µM | 31.2 µM | 41.6 µM | 42.8 µM | 3.38 µM | 32.4 µM | 13.2 µM | 10.5 µM | 14.5 µM | 18 µM | 4.75 µM | – | – |
| COC(=O)c1c2c(c(C)[n+]([O-])c1C)C(=O)C(NCc1ccc(F)c(Cl)c1)=CC2=O | 8.88 µM | 13.6 µM | 5.79 µM | – | 7.9 µM | 23.1 µM | 5.6 µM | 2.34 µM | 3.57 µM | 2.52 µM | – | 2.1 µM | 2.96 µM | 1.76 µM | 3.03 µM | 22.8 µM |
| N#Cc1cccc(Nc2nccc(-c3cnn4ncccc34)n2)c1 | > 8.75 µM | > 25 µM | 0.0166 µM | > 11.6 µM | > 25 µM | – | – | 0.00279 µM | 0.014 µM | 0.00589 µM | 0.00937 µM | 0.00487 µM | 0.00749 µM | – | 0.006 µM | > 25 µM |
| C=CC(=O)Nc1cc2c(Nc3ccc(OCc4ccccn4)c(Cl)c3)ncnc2cc1OCCN1CCOCC1 | 5.83 µM | – | 9.06 µM | 4.01 µM | > 100 µM | > 100 µM | 34.2 µM | 1.81 µM | – | 1.02 µM | 0.125 µM | 0.201 µM | 3.2 µM | 2.17 µM | 2.98 µM | > 100 µM |

— PubChem BioAssay (NCI)
